According to patent US4287206A, “Halogen derivatives of 8-hydroxycarboxylic acids; the processes for their preparation and medicaments in which they are present” (priority 1978, dated 1981):
Like-named read-outs stand apart in the source and are kept apart here.

Assays:
[1] = Determination of the acute toxicity to mice (BEHRENS and KARBER); conditions: mouse, in vivo
Method: All the experiments reported below were carried out on male rats having a weight of between 170 and 220 g (Wistar AF strain) and male mice having a weight of between 18 and 23 g (Swiss NMRI strain), unless otherwise stated in the following text.
Determination of the acute toxicity to mice
Method used: BEHRENS and KARBER

mice = assay: Motor activity in mice (activity meters with photoelectric cells); format: in vivo
Method: The motor activity was determined with the aid of activity meters having photoelectric cells (Boissier and Simon, Arch. int. Pharmacodyn. 1965, 158, 212-221). A minimum of 10 animals was always used per batch.
The mice are placed in the activity meter just after the oral or intraperitoneal administration of the product acccording to the invention, obtained in accordance with Example I. The motor activity is measured as from the introduction into the activity meter up to the 60th minute. The counters are read after 30 minutes, then reset to 0 and read every 10 minutes for 30 minutes.

CC1CC(c2ccc(Cl)cc2)C(c2ccccc2)C(=O)O1 (stereo not drawn) [Example I, trans-4-(4'-chlorophenyl)-6-methyl-3-phenyl-3,4,5,6-tetrahydropyrone-2]
LD50 ([1]; ip, intraperitoneal, read-out: LD50 (intraperitoneal administration)): 520 mg/kg
LD50 ([1]; oral, read-out: LD50 (oral administration)): 1050 mg/kg
Number of rays passed through by mice (mice; Table Ia, 1 mg/kg intraperitoneal, 30 + 10 min): 76
Number of rays passed through by mice (mice; Table Ia, 1 mg/kg intraperitoneal, 30 + 20 min): 163
Number of rays passed through by mice (mice; Table Ia, 1 mg/kg intraperitoneal, 30 + 30 min): 235
Number of rays passed through by mice (mice; Table Ia, 1 mg/kg intraperitoneal, 30 min): 400
Number of rays passed through by mice (mice; Table Ia, 2 mg/kg intraperitoneal, 30 + 10 min): 114
Number of rays passed through by mice (mice; Table Ia, 2 mg/kg intraperitoneal, 30 + 20 min): 231
Number of rays passed through by mice (mice; Table Ia, 2 mg/kg intraperitoneal, 30 + 30 min): 331
Number of rays passed through by mice (mice; Table Ia, 2 mg/kg intraperitoneal, 30 min): 474
Number of rays passed through by mice (mice; Table Ia, 4 mg/kg intraperitoneal, 30 + 10 min): 129
Number of rays passed through by mice (mice; Table Ia, 4 mg/kg intraperitoneal, 30 + 20 min): 269
Number of rays passed through by mice (mice; Table Ia, 4 mg/kg intraperitoneal, 30 + 30 min): 322
Number of rays passed through by mice (mice; Table Ia, 4 mg/kg intraperitoneal, 30 min): 529
Number of rays passed through by mice (mice; Table Ia, 4 mg/kg oral, 30 + 10 min): 139
Number of rays passed through by mice (mice; Table Ia, 4 mg/kg oral, 30 + 20 min): 257
Number of rays passed through by mice (mice; Table Ia, 4 mg/kg oral, 30 + 30 min): 386
Number of rays passed through by mice (mice; Table Ia, 4 mg/kg oral, 30 min): 462
Number of rays passed through by mice (mice; Table Ia, 8 mg/kg intraperitoneal, 30 + 10 min): 147
Number of rays passed through by mice (mice; Table Ia, 8 mg/kg intraperitoneal, 30 + 20 min): 309
Number of rays passed through by mice (mice; Table Ia, 8 mg/kg intraperitoneal, 30 + 30 min): 467
Number of rays passed through by mice (mice; Table Ia, 8 mg/kg intraperitoneal, 30 min): 659
Number of rays passed through by mice (mice; Table Ia, 8 mg/kg oral, 30 + 10 min): 157
Number of rays passed through by mice (mice; Table Ia, 8 mg/kg oral, 30 + 20 min): 314
Number of rays passed through by mice (mice; Table Ia, 8 mg/kg oral, 30 + 30 min): 461
Number of rays passed through by mice (mice; Table Ia, 8 mg/kg oral, 30 min): 478
Number of rays passed through by mice (mice; Table Ia, 16 mg/kg intraperitoneal, 30 + 10 min): 176
Number of rays passed through by mice (mice; Table Ia, 16 mg/kg intraperitoneal, 30 + 20 min): 336
Number of rays passed through by mice (mice; Table Ia, 16 mg/kg intraperitoneal, 30 + 30 min): 465
Number of rays passed through by mice (mice; Table Ia, 16 mg/kg intraperitoneal, 30 min): 763
Number of rays passed through by mice (mice; Table Ia, 16 mg/kg oral, 30 + 10 min): 232
Number of rays passed through by mice (mice; Table Ia, 16 mg/kg oral, 30 + 20 min): 428
Number of rays passed through by mice (mice; Table Ia, 16 mg/kg oral, 30 + 30 min): 636
Number of rays passed through by mice (mice; Table Ia, 16 mg/kg oral, 30 min): 629
Number of rays passed through by mice (mice; Table Ia, 32 mg/kg intraperitoneal, 30 + 10 min): 187
Number of rays passed through by mice (mice; Table Ia, 32 mg/kg intraperitoneal, 30 + 20 min): 422
Number of rays passed through by mice (mice; Table Ia, 32 mg/kg intraperitoneal, 30 + 30 min): 594
Number of rays passed through by mice (mice; Table Ia, 32 mg/kg intraperitoneal, 30 min): 891
Number of rays passed through by mice (mice; Table Ia, 32 mg/kg oral, 30 + 10 min): 270
Number of rays passed through by mice (mice; Table Ia, 32 mg/kg oral, 30 + 20 min): 587
Number of rays passed through by mice (mice; Table Ia, 32 mg/kg oral, 30 + 30 min): 869
Number of rays passed through by mice (mice; Table Ia, 32 mg/kg oral, 30 min): 783
Number of rays passed through by mice (mice; Table Ib, 2 mg/kg, route not given, 0 + 10 min): 119
Number of rays passed through by mice (mice; Table Ib, 2 mg/kg, route not given, 30 + 20 min): 221
Number of rays passed through by mice (mice; Table Ib, 2 mg/kg, route not given, 30 + 30 min): 334
Number of rays passed through by mice (mice; Table Ib, 2 mg/kg, route not given, 30 min): 417
Number of rays passed through by mice (mice; Table Ib, 4 mg/kg, route not given, 0 + 10 min): 129
Number of rays passed through by mice (mice; Table Ib, 4 mg/kg, route not given, 30 + 20 min): 259
Number of rays passed through by mice (mice; Table Ib, 4 mg/kg, route not given, 30 + 30 min): 376
Number of rays passed through by mice (mice; Table Ib, 4 mg/kg, route not given, 30 min): 472
Number of rays passed through by mice (mice; Table Ib, 8 mg/kg, route not given, 0 + 10 min): 141
Number of rays passed through by mice (mice; Table Ib, 8 mg/kg, route not given, 30 + 20 min): 286
Number of rays passed through by mice (mice; Table Ib, 8 mg/kg, route not given, 30 + 30 min): 443
Number of rays passed through by mice (mice; Table Ib, 8 mg/kg, route not given, 30 min): 452
Number of rays passed through by mice (mice; Table Ib, 16 mg/kg, route not given, 0 + 10 min): 172
Number of rays passed through by mice (mice; Table Ib, 16 mg/kg, route not given, 30 + 20 min): 359
Number of rays passed through by mice (mice; Table Ib, 16 mg/kg, route not given, 30 + 30 min): 537
